In US10351594B2, “Process for preparing compounds having triple activities of thrombolysis, antithrombosis, and radical scavenging” (Shanghai Lumosa Therapeutics Co., Ltd., priority 2013, dated 2019):

Key:
[1] = Hydroxyl free radical scavenging activity (DMPO signal peak height); format: biochemical; details: n = 6; read-out: EC50 of scavenging •OH
Protocol: 11.316 mg DMPO ([…], Sigma) was dissolved in 1 mL of pure water to obtain 0.1 M DMPO solution. […] FeSO4.7H2O was dissolved in 1 mL of pure water to obtain 10 mM solution. 30% medical H2O2 was diluted to 0.2%.
The first peak height of the OH signal of 2.5 μL FeSO4.7H2O solution+2.5 μL DMPO solution+5 μL H2O2 solution+5 μL water was measured and repeated for 6 times. This peak height defined as the known peak height of OH signal. The first peak height of the OH signal of 2.5 μL FeSO4.7H2O solution+2.5 μL DMPO solution+5 μL H2O2 solution+5 μL solution of one of the compounds 5Aa-p was measured and repeated for 6 times. This peak height defined as the residual peak height of the OH signal scavenged by one of the compounds 5Aa-p. Scavenging ratio=(known peak height of OH signal−residual peak height of OH signal of compounds 5Aa-p)/known peak height of OH signal

[2] = Superoxide anionic radical scavenging activity (xanthine/xanthine oxidase, DMPO); format: biochemical; details: n = 6
Protocol: […] xanthine was dissolved in 1 mL of pure water to obtain 0.5 M xanthine solution (milk white color, largely insoluble). Commercially available raw solution of xanthine oxidase was diluted 10 folds to obtain solution of xanthine oxidase. Saturated DETAPAC solution was diluted 20 folds to obtain 0.9 mM solution. 11.316 mg DMPO was dissolved in 1 mL of pure water to obtain 0.1 M DMPO solution.
5 μL DMPO solution+5 μL DETAPAC solution+5 μL xanthine solution+5 μL xanthine oxidase solution+5 μL compounds 5Aa-p solution
The first peak height of superoxide anion signal of 5 μL DMPO solution+5 μL DETAPAC solution+5 μL xanthine solution+5 μL xanthine oxidase solution+5 μL water was measured and repeated for 6 times. This peak height defined as the known peak height of superoxide anion signal. The first peak height of superoxide anion signal of 5 μL DMPO solution+5 μL DETAPAC solution+5 μL xanthine solution+5 μL xanthine oxidase solution+5 μL solution of one of compounds 5Aa-p was measured and repeated for 6 times. This peak height defined as the residual peak height of the superoxide anion signal scavenged by one of the compounds 5Aa-p. Scavenging ratio=(known peak height of superoxide anion signal−residual peak height of superoxide anion signal of compounds 5Aa-p)/known peak height of superoxide anion signal

CC(C)C[C@H](NC(=O)[C@H](C)NC(=O)[C@@H]1CCCN1)C(=O)NCCCC[C@H](NC(=O)[C@@H]1Cc2cc(O)c(O)cc2C(C)(C)N1)C(=O)O [Compound 5Al, 3S-6,7-dihydroxy-1,1-dimethyl-1,2,3,4-tetrahydro-isoquinoline-3-acyl-Lys(Pro-Ala-Leu)]
EC50 [1]: 489 ± 32 µM
EC50 [2]: 414 ± 97 µM

C[C@H](NC(=O)[C@@H]1CCCN1)C(=O)N[C@@H](CO)C(=O)NCCCC[C@H](NC(=O)[C@@H]1Cc2cc(O)c(O)cc2C(C)(C)N1)C(=O)O [Compound 5Ah, 3S-6,7-dihydroxy-1,1-dimethyl-1,2,3,4-tetrahydro-isoquinoline-3-acyl-Lys(Pro-Ala-Ser)]
EC50 [1]: 413 ± 73 µM
EC50 [2]: 401 ± 72 µM

3S-6,7-dihydroxy-1,1-dimethyl-1,2,3,4-tetrahydro-isoquinoline-3-acyl-Lys(Pro-Ala-Val) [Compound 5Ab]
EC50 [1]: 471 ± 71 µM
EC50 [2]: 471 ± 34 µM

C[C@H](NC(=O)[C@@H]1CCCN1)C(=O)N[C@H](C(=O)NCCCC[C@H](NC(=O)[C@@H]1Cc2cc(O)c(O)cc2C(C)(C)N1)C(=O)O)[C@@H](C)O [Compound 5Aj, 3S-6,7-dihydroxy-1,1-dimethyl-1,2,3,4-tetrahydro-isoquinoline-3-acyl-Lys(Pro-Ala-Thr)]
EC50 [1]: 416 ± 28 µM
EC50 [2]: 417 ± 95 µM

C[C@H](NC(=O)[C@@H]1CCCN1)C(=O)N[C@@H](CCC(N)=O)C(=O)NCCCC[C@H](NC(=O)[C@@H]1Cc2cc(O)c(O)cc2C(C)(C)N1)C(=O)O [Compound 5Am, 3S-6,7-dihydroxy-1,1-dimethyl-1,2,3,4-tetrahydro-isoquinoline-3-acyl-Lys(Pro-Ala-Gln)]
EC50 [1]: 466 ± 77 µM
EC50 [2]: 371 ± 45 µM

3S-6,7-dihydroxy-1,1-dimethyl-1,2,3,4-tetrahydro-isoquinoline-3-acyl-Lys(Pro-Ala-Ala) [Compound 5Aa]
EC50 [1]: 459 ± 66 µM
EC50 [2]: 477 ± 56 µM

C[C@H](NC(=O)[C@@H]1CCCN1)C(=O)N[C@@H](Cc1ccccc1)C(=O)NCCCC[C@H](NC(=O)[C@@H]1Cc2cc(O)c(O)cc2C(C)(C)N1)C(=O)O [Compound 5Af, 3S-6,7-dihydroxy-1,1-dimethyl-1,2,3,4-tetrahydro-isoquinoline-3-acyl-Lys(Pro-Ala-Phe)]
EC50 [1]: 544 ± 43 µM
EC50 [2]: 485 ± 31 µM

CC[C@H](C)[C@H](NC(=O)[C@H](C)NC(=O)[C@@H]1CCCN1)C(=O)NCCCC[C@H](NC(=O)[C@@H]1Cc2cc(O)c(O)cc2C(C)(C)N1)C(=O)O [Compound 5Ai, 3S-6,7-dihydroxy-1,1-dimethyl-1,2,3,4-tetrahydro-isoquinoline-3-acyl-Lys(Pro-Ala-Ile)]
EC50 [1]: 495 ± 61 µM
EC50 [2]: 452 ± 64 µM

3S-6,7-dihydroxy-1,1-dimethyl-1,2,3,4-tetrahydro-isoquinoline-3-acyl-Lys(Pro-Ala-Gly) [Compound 5Ag]
EC50 [1]: 422 ± 61 µM
EC50 [2]: 467 ± 94 µM

C[C@H](NC(=O)[C@@H]1CCCN1)C(=O)N[C@@H](CCCCN)C(=O)NCCCC[C@H](NC(=O)[C@@H]1Cc2cc(O)c(O)cc2C(C)(C)N1)C(=O)O [Compound 5Ak, 3S-6,7-dihydroxy-1,1-dimethyl-1,2,3,4-tetrahydro-isoquinoline-3-acyl-Lys(Pro-Ala-Lys)]
EC50 [1]: 422 ± 82 µM
EC50 [2]: 363 ± 94 µM

C[C@H](NC(=O)[C@@H]1CCCN1)C(=O)N[C@@H](Cc1c[nH]c2ccccc12)C(=O)NCCCC[C@H](NC(=O)[C@@H]1Cc2cc(O)c(O)cc2C(C)(C)N1)C(=O)O [Compound 5Ac, 3S-6,7-dihydroxy-1,1-dimethyl-1,2,3,4-tetrahydro-isoquinoline-3-acyl-Lys(Pro-Ala-Trp)]
EC50 [1]: 378 ± 85 µM
EC50 [2]: 366 ± 71 µM

C[C@H](NC(=O)[C@@H]1CCCN1)C(=O)N[C@@H](Cc1ccc(O)cc1)C(=O)NCCCC[C@H](NC(=O)[C@@H]1Cc2cc(O)c(O)cc2C(C)(C)N1)C(=O)O [Compound 5Ad, 3S-6,7-dihydroxy-1,1-dimethyl-1,2,3,4-tetrahydro-isoquinoline-3-acyl-Lys(Pro-Ala-Tyr)]
EC50 [1]: 369 ± 32 µM
EC50 [2]: 354 ± 71 µM

C[C@H](NC(=O)[C@@H]1CCCN1)C(=O)N[C@@H](CC(N)=O)C(=O)NCCCC[C@H](NC(=O)[C@@H]1Cc2cc(O)c(O)cc2C(C)(C)N1)C(=O)O [Compound 5An, 3S-6,7-dihydroxy-1,1-dimethyl-1,2,3,4-tetrahydro-isoquinoline-3-acyl-Lys(Pro-Ala-Asn)]
EC50 [1]: 572 ± 72 µM
EC50 [2]: 383 ± 94 µM

C[C@H](NC(=O)[C@@H]1CCCN1)C(=O)N1CCC[C@H]1C(=O)NCCCC[C@H](NC(=O)[C@@H]1Cc2cc(O)c(O)cc2C(C)(C)N1)C(=O)O [Compound 5Ae, 3S-6,7-dihydroxy-1,1-dimethyl-1,2,3,4-tetrahydro-isoquinoline-3-acyl-Lys(Pro-Ala-Pro)]
EC50 [1]: 466 ± 47 µM
EC50 [2]: 481 ± 45 µM

C[C@H](NC(=O)[C@@H]1CCCN1)C(=O)N[C@@H](CC(=O)O)C(=O)NCCCC[C@H](NC(=O)[C@@H]1Cc2cc(O)c(O)cc2C(C)(C)N1)C(=O)O [Compound 5Ao, 3S-6,7-dihydroxy-1,1-dimethyl-1,2,3,4-tetrahydro-isoquinoline-3-acyl-Lys(Pro-Ala-Asp)]
EC50 [1]: 396 ± 48 µM
EC50 [2]: 435 ± 65 µM

C[C@H](NC(=O)[C@@H]1CCCN1)C(=O)N[C@@H](CCC(=O)O)C(=O)NCCCC[C@H](NC(=O)[C@@H]1Cc2cc(O)c(O)cc2C(C)(C)N1)C(=O)O [Compound 5Ap, 3S-6,7-dihydroxy-1,1-dimethyl-1,2,3,4-tetrahydro-isoquinoline-3-acyl-Lys(Pro-Ala-Glu)]
EC50 [1]: 400 ± 51 µM
EC50 [2]: 420 ± 73 µM
